PubChem BioAssay AID1963837 (Molecular Pharmacology Branch, DTP, NCI, 2024)

Tested on: 843126-344-R-J1-PDC complex spheroid viability
Assay: Anticancer human tumor 843126-344-R-J1-PDC patient-derived melanoma cell line growth inhibition [POLQ]
Conditions: second compound 0.0316 µM; first compound 3.16 µM; stronger effect = lower value
Procedure, shortened: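 PDC + HUVEC + MSC complex spheroids; POLQ inhibitors ± partner drugs; top conc. at/near clinical Cmax, else 10 microM (SN-38 1 microM), half-log dilutions; 37 degrees C, 5% CO2.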
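Also: spheroids exposed to drugs for seven days before readout.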

How did the viability, T/C turn out when `CC(C)n1c(=O)n(C)c2cnc3cc(F)c(-c4ccc(OCCCN5CCCCC5)nc4)cc3c21` + Nc1ccc(C#CCN(C(=O)Cc2ncc(C(F)(F)F)cc2C(F)(F)F)c2ccc(F)cc2)nn1 was run?
The viability, T/C was 81.5%.

For `CC1COCCN1c1cc(-c2ccnn2C)c2ccnc(-c3ccn[nH]3)c2n1` (stereo unspecified) + Nc1ccc(C#CCN(C(=O)Cc2ncc(C(F)(F)F)cc2C(F)(F)F)c2ccc(F)cc2)nn1, which viability, T/C is on record?
The viability, T/C was 36.7%.

`CC1COCCN1c1cc(C2(S(C)(=N)=O)CC2)nc(-c2ccnc3[nH]ccc23)n1` (stereo unspecified) + Nc1ccc(C#CCN(C(=O)Cc2ncc(C(F)(F)F)cc2C(F)(F)F)c2ccc(F)cc2)nn1 was tested. Which viability, T/C did it give?
The viability, T/C was 72.7%.

`COc1ccc([C@@H](O)c2cc(-c3ncnc4cc(N5CCOCC5)ccc34)c(F)cc2Cl)nn1` + Nc1ccc(C#CCN(C(=O)Cc2ncc(C(F)(F)F)cc2C(F)(F)F)c2ccc(F)cc2)nn1 was tested. Which viability, T/C did it give?
The viability, T/C was 80.9%.

Same assay, conditions: second compound 0.0316 µM; first compound 10 µM; stronger effect = lower value

Which viability, T/C does the source give for `C=CC(=O)N1CCN(c2nc(=O)n(-c3c(C)ccnc3C(C)C)c3nc(-c4c(O)cccc4F)c(F)cc23)C(C)C1` (stereo unspecified) + Nc1ccc(C#CCN(C(=O)Cc2ncc(C(F)(F)F)cc2C(F)(F)F)c2ccc(F)cc2)nn1 here?
Its viability, T/C is 84.4%.

Which viability, T/C does the source give for `CC(C)n1c(=O)n(C)c2cnc3cc(F)c(-c4ccc(OCCCN5CCCCC5)nc4)cc3c21` + Nc1ccc(C#CCN(C(=O)Cc2ncc(C(F)(F)F)cc2C(F)(F)F)c2ccc(F)cc2)nn1 here?
Its viability, T/C is 77.8%.

For `CC1COCCN1c1cc(-c2ccnn2C)c2ccnc(-c3ccn[nH]3)c2n1` (stereo unspecified) + Nc1ccc(C#CCN(C(=O)Cc2ncc(C(F)(F)F)cc2C(F)(F)F)c2ccc(F)cc2)nn1, which viability, T/C is on record?
Its viability, T/C is 29%.

`CC1COCCN1c1cc(C2(S(C)(=N)=O)CC2)nc(-c2ccnc3[nH]ccc23)n1` (stereo unspecified) + Nc1ccc(C#CCN(C(=O)Cc2ncc(C(F)(F)F)cc2C(F)(F)F)c2ccc(F)cc2)nn1 was tested. Which viability, T/C did it give?
Its viability, T/C is 51.6%.

Which viability, T/C does the source give for `COc1ccc([C@@H](O)c2cc(-c3ncnc4cc(N5CCOCC5)ccc34)c(F)cc2Cl)nn1` + Nc1ccc(C#CCN(C(=O)Cc2ncc(C(F)(F)F)cc2C(F)(F)F)c2ccc(F)cc2)nn1 here?
The viability, T/C was 62.9%.

Same assay, conditions: second compound 0.1 µM; first compound 0.000316 µM; stronger effect = lower value

`Cn1ncnc1[C@H]1c2n[nH]c(=O)c3cc(F)cc(c23)N[C@@H]1c1ccc(F)cc1` + Nc1ccc(C#CCN(C(=O)Cc2ncc(C(F)(F)F)cc2C(F)(F)F)c2ccc(F)cc2)nn1 was tested. Which viability, T/C did it give?
The viability, T/C was 89%.

Same assay, conditions: second compound 0.1 µM; first compound 0.001 µM; stronger effect = lower value

How did the viability, T/C turn out when `Cn1ncnc1[C@H]1c2n[nH]c(=O)c3cc(F)cc(c23)N[C@@H]1c1ccc(F)cc1` + Nc1ccc(C#CCN(C(=O)Cc2ncc(C(F)(F)F)cc2C(F)(F)F)c2ccc(F)cc2)nn1 was run?
The viability, T/C was 91.7%.

Same assay, conditions: second compound 0.1 µM; first compound 0.00316 µM; stronger effect = lower value

How did the viability, T/C turn out when `Cn1ncnc1[C@H]1c2n[nH]c(=O)c3cc(F)cc(c23)N[C@@H]1c1ccc(F)cc1` + Nc1ccc(C#CCN(C(=O)Cc2ncc(C(F)(F)F)cc2C(F)(F)F)c2ccc(F)cc2)nn1 was run?
The viability, T/C was 107%.

Same assay, conditions: second compound 0.1 µM; first compound 0.01 µM; stronger effect = lower value

For `Cn1ncnc1[C@H]1c2n[nH]c(=O)c3cc(F)cc(c23)N[C@@H]1c1ccc(F)cc1` + Nc1ccc(C#CCN(C(=O)Cc2ncc(C(F)(F)F)cc2C(F)(F)F)c2ccc(F)cc2)nn1, which viability, T/C is on record?
Its viability, T/C is 96.2%.

Same assay, conditions: second compound 0.1 µM; first compound 0.0316 µM; stronger effect = lower value

Which viability, T/C does the source give for `C=CC(=O)N1CCN(c2nc(=O)n(-c3c(C)ccnc3C(C)C)c3nc(-c4c(O)cccc4F)c(F)cc23)C(C)C1` (stereo unspecified) + Nc1ccc(C#CCN(C(=O)Cc2ncc(C(F)(F)F)cc2C(F)(F)F)c2ccc(F)cc2)nn1 here?
Its viability, T/C is 104%.

For `CC(C)n1c(=O)n(C)c2cnc3cc(F)c(-c4ccc(OCCCN5CCCCC5)nc4)cc3c21` + Nc1ccc(C#CCN(C(=O)Cc2ncc(C(F)(F)F)cc2C(F)(F)F)c2ccc(F)cc2)nn1, which viability, T/C is on record?
Its viability, T/C is 93.8%.

Which viability, T/C does the source give for `CC1COCCN1c1cc(-c2ccnn2C)c2ccnc(-c3ccn[nH]3)c2n1` (stereo unspecified) + Nc1ccc(C#CCN(C(=O)Cc2ncc(C(F)(F)F)cc2C(F)(F)F)c2ccc(F)cc2)nn1 here?
The viability, T/C was 84.3%.

`CC1COCCN1c1cc(C2(S(C)(=N)=O)CC2)nc(-c2ccnc3[nH]ccc23)n1` (stereo unspecified) + Nc1ccc(C#CCN(C(=O)Cc2ncc(C(F)(F)F)cc2C(F)(F)F)c2ccc(F)cc2)nn1 was tested. Which viability, T/C did it give?
Its viability, T/C is 84.8%.

`COc1ccc([C@@H](O)c2cc(-c3ncnc4cc(N5CCOCC5)ccc34)c(F)cc2Cl)nn1` + Nc1ccc(C#CCN(C(=O)Cc2ncc(C(F)(F)F)cc2C(F)(F)F)c2ccc(F)cc2)nn1 was tested. Which viability, T/C did it give?
Its viability, T/C is 95.7%.

For `Cn1ncnc1[C@H]1c2n[nH]c(=O)c3cc(F)cc(c23)N[C@@H]1c1ccc(F)cc1` + Nc1ccc(C#CCN(C(=O)Cc2ncc(C(F)(F)F)cc2C(F)(F)F)c2ccc(F)cc2)nn1, which viability, T/C is on record?
Its viability, T/C is 99.7%.

Same assay, conditions: second compound 0.1 µM; first compound 0.1 µM; stronger effect = lower value

Which viability, T/C does the source give for `C=CC(=O)N1CCN(c2nc(=O)n(-c3c(C)ccnc3C(C)C)c3nc(-c4c(O)cccc4F)c(F)cc23)C(C)C1` (stereo unspecified) + Nc1ccc(C#CCN(C(=O)Cc2ncc(C(F)(F)F)cc2C(F)(F)F)c2ccc(F)cc2)nn1 here?
Its viability, T/C is 86.1%.

`CC(C)n1c(=O)n(C)c2cnc3cc(F)c(-c4ccc(OCCCN5CCCCC5)nc4)cc3c21` + Nc1ccc(C#CCN(C(=O)Cc2ncc(C(F)(F)F)cc2C(F)(F)F)c2ccc(F)cc2)nn1 was tested. Which viability, T/C did it give?
Its viability, T/C is 92.4%.

For `CC1COCCN1c1cc(-c2ccnn2C)c2ccnc(-c3ccn[nH]3)c2n1` (stereo unspecified) + Nc1ccc(C#CCN(C(=O)Cc2ncc(C(F)(F)F)cc2C(F)(F)F)c2ccc(F)cc2)nn1, which viability, T/C is on record?
The viability, T/C was 71.2%.

For `CC1COCCN1c1cc(C2(S(C)(=N)=O)CC2)nc(-c2ccnc3[nH]ccc23)n1` (stereo unspecified) + Nc1ccc(C#CCN(C(=O)Cc2ncc(C(F)(F)F)cc2C(F)(F)F)c2ccc(F)cc2)nn1, which viability, T/C is on record?
The viability, T/C was 90.2%.

`COc1ccc([C@@H](O)c2cc(-c3ncnc4cc(N5CCOCC5)ccc34)c(F)cc2Cl)nn1` + Nc1ccc(C#CCN(C(=O)Cc2ncc(C(F)(F)F)cc2C(F)(F)F)c2ccc(F)cc2)nn1 was tested. Which viability, T/C did it give?
Its viability, T/C is 95.8%.

For `Cn1ncnc1[C@H]1c2n[nH]c(=O)c3cc(F)cc(c23)N[C@@H]1c1ccc(F)cc1` + Nc1ccc(C#CCN(C(=O)Cc2ncc(C(F)(F)F)cc2C(F)(F)F)c2ccc(F)cc2)nn1, which viability, T/C is on record?
Its viability, T/C is 97.7%.

Same assay, conditions: second compound 0.1 µM; first compound 0.316 µM; stronger effect = lower value

How did the viability, T/C turn out when `C=CC(=O)N1CCN(c2nc(=O)n(-c3c(C)ccnc3C(C)C)c3nc(-c4c(O)cccc4F)c(F)cc23)C(C)C1` (stereo unspecified) + Nc1ccc(C#CCN(C(=O)Cc2ncc(C(F)(F)F)cc2C(F)(F)F)c2ccc(F)cc2)nn1 was run?
The viability, T/C was 84.9%.

Which viability, T/C does the source give for `CC(C)n1c(=O)n(C)c2cnc3cc(F)c(-c4ccc(OCCCN5CCCCC5)nc4)cc3c21` + Nc1ccc(C#CCN(C(=O)Cc2ncc(C(F)(F)F)cc2C(F)(F)F)c2ccc(F)cc2)nn1 here?
The viability, T/C was 77.7%.

For `CC1COCCN1c1cc(-c2ccnn2C)c2ccnc(-c3ccn[nH]3)c2n1` (stereo unspecified) + Nc1ccc(C#CCN(C(=O)Cc2ncc(C(F)(F)F)cc2C(F)(F)F)c2ccc(F)cc2)nn1, which viability, T/C is on record?
Its viability, T/C is 63.5%.

`CC1COCCN1c1cc(C2(S(C)(=N)=O)CC2)nc(-c2ccnc3[nH]ccc23)n1` (stereo unspecified) + Nc1ccc(C#CCN(C(=O)Cc2ncc(C(F)(F)F)cc2C(F)(F)F)c2ccc(F)cc2)nn1 was tested. Which viability, T/C did it give?
The viability, T/C was 88.8%.

`COc1ccc([C@@H](O)c2cc(-c3ncnc4cc(N5CCOCC5)ccc34)c(F)cc2Cl)nn1` + Nc1ccc(C#CCN(C(=O)Cc2ncc(C(F)(F)F)cc2C(F)(F)F)c2ccc(F)cc2)nn1 was tested. Which viability, T/C did it give?
The viability, T/C was 103%.

Same assay, conditions: second compound 0.1 µM; first compound 1 µM; stronger effect = lower value

How did the viability, T/C turn out when `C=CC(=O)N1CCN(c2nc(=O)n(-c3c(C)ccnc3C(C)C)c3nc(-c4c(O)cccc4F)c(F)cc23)C(C)C1` (stereo unspecified) + Nc1ccc(C#CCN(C(=O)Cc2ncc(C(F)(F)F)cc2C(F)(F)F)c2ccc(F)cc2)nn1 was run?
The viability, T/C was 97.8%.
